Source: patent US20130116586A1, “USE OF DRONEDARONE OR A PHARMACEUTICALLY ACCEPTABLE SALT THEREOF FOR THE PREPARATION OF A DRUG FOR THE PREVENTION OF ATRIAL FIBRILLATION” (SANOFI, priority 2011, published 2013)
Where a name gives a salt, the structure may show the parent alone.

Tests used:
[1] = test system: patients with permanent atrial fibrillation or flutter; assay: PALLAS study: dronedarone 400 mg bid vs placebo on top of standard therapy; assay type: in vivo, human; conditions: for unplanned cardiovascular hospitalizations and mortality, events recorded: 400 mg bid; for relative risk of cardiovascular hospitalizations and deaths vs placebo: Cox model
From the text: The PALLAS trial (Permanent Atrial fibriLLAtion outcome Study) using dronedarone on top of standard therapy was designed to evaluate the efficacy of dronedarone on major cardiovascular events in a patient population with permanent AF.
The primary efficacy objective of PALLAS was the reduction of: • 1) major cardiovascular events (stroke, systemic arterial embolism, myocardial infarction or cardiovascular death), or • 2) unplanned cardiovascular hospitalization or death from any cause.
Patients with permanent AF were at least 65 years of age with a 12-lead ECG recorded no more than 14 days prior to randomization showing AF or atrial flutter, documentation in the form of ECG rhythm strips or medical reports indicating AF or atrial flutter for at least 6 months prior to randomization without evidence of sinus rhythm in the intervening period. In addition, both the patient and physician must have reached a decision to allow AF to continue without further efforts to restore sinus rhythm.
Patients were randomized to dronedarone 400 mg bid or placebo.
• 1. NYHA class IV or recent unstable NYHA class III heart failure, where unstable refers to a requirement for intensification of therapy (e.g., increased diuretic, ACE/ARB, or inotropic dosage due to exacerbated symptoms within one month prior to randomization). • 2. Sustained daytime bradycardia <50 bpm without a permanent pacemaker • 3. QTc interval ≧500 ms, or 530 ms if there is ventricular paced rhythm • 4. Hypersensitivity to the active substance or to any of its excipients • 5. Need for co-administration of strong CYP3A4 inhibitors, such as ketoconazole, itraconazole, voriconazole, telithromycin, clarithromycin, nefazodone and ritonavir leading to increased systemic exposure to dronedarone • 6. Need for co-administration of medicinal products capable of inducing torsades de pointes ventricular tachycardia, such as phenothiazines, cisapride, bepridil, tricyclic antidepressants, terfenadine and certain oral macrolides, or Vaughan Williams class I and III antiarrhythmic agents) • 7. Severe hepatic impairment
Treatment was initiated using tablets containing either the placebo or an amount of dronedarone hydrochloride corresponding to 400 mg of dronedarone at a rate of one tablet twice a day with the morning and evening meals.
The anticipated duration of the treatment was variable according to the time at which each patient was included in the study, and could range between 3 months for the last patient included and 3 years for the first patient included.
The results obtained in this trial were analysed by the Kaplan Meier method for the figures, and the relative risk (RR) was estimated using Cox's proportional-effect regression model.
The relative risk (RR) is the ratio of the rates of occurrence of a hospitalization or of a death among the patients on dronedarone, relative to the patients on placebo.

[2] = test system: patients with atrial fibrillation/atrial flutter; assay: ATHENA trial, including post-hoc exploratory analysis of patients with AF on all follow-up ECGs; assay type: in vivo, human; conditions: for patients displaying AF on all ECGs recorded during follow-up: of 2301 patients assigned to dronedarone
Protocol: • AF/AFL atrial fibrillation or atrial flutter • ATHENA A placebo-controlled, double-blind, parallel arm Trial to assess the efficacy of dronedarone 400 mg bid for the prevention of cardiovascular Hospitalization or death from any cause in patiENts with Atrial fibrillation/atrial flutter • PALLAS Permanent Atrial fibriLLAtion Outcome Study Using Dronedarone on Top of Standard Therapy
For the sake of hypothesis generation, these patients can be considered as having permanent AF. In a post-hoc exploratory analysis of this cohort, the primary study endpoint (time to first CV hospitalization or all-cause death) occurred in 95 patients in the placebo group and 46 in the dronedarone group (HR 0.742, 95% Cl 0.522-1.056; p=0.096). Considering first unplanned CV hospitalizations, 85 patients in the placebo group and 37 on dronedarone reached this secondary study endpoint (HR 0.67, 95% Cl 0.46-0.99; p=0.04). There was a similar trend toward reduction in major cardiovascular events (stroke, ACS, cardiovascular death). These observations from ATHENA supported testing the efficacy of dronedarone for prevention of major cardiovascular events in patients with permanent AF.

[3] = test system: patients with atrial fibrillation/atrial flutter; conditions: whole ATHENA trial; cited from earlier work
[4] = test system: patients hospitalized with symptomatic unstable heart failure and severe left ventricular systolic function; conditions: trial terminated early; cited from earlier work
[5] = test system: patients with permanent atrial fibrillation; conditions: in vivo; cited from earlier work
[6] = test system: patients with atrial fibrillation; conditions: in vivo; cited from earlier work

Question: Which “co-primary outcomes, cardiovascular hospitalizations and heart failure events in the dronedarone group” value ([1]; preliminary review of the unblinded data) does the source give for `CCCCc1oc2ccc(NS(C)(=O)=O)cc2c1C(=O)c1ccc(OCCCN(CCCC)CCCC)cc1` [dronedarone, 2-n-Butyl-3-[4-(3-di-n-butylaminopropoxy)benzoyl]-5-methylsulphonamidobenzofuran] here?
Answer: The value was “highly significant excess of events”.

Question: And the “patients displaying AF on all ECGs recorded during follow-up” value ([2]; placebo 12.7%)?
Answer: Its value is 7.7%.

Question: What about the “patients displaying AF on all ECGs recorded during follow-up” value ([2]; placebo 296 of 2,327) of the same compound?
Answer: Its value is 178 patients.

Question: What about the “HR for first unplanned CV hospitalizations vs placebo” value ([2]; post-hoc cohort with AF on all ECGs, 95% CI 0.46-0.99, p=0.04) of the same compound?
Answer: The value was 0.67.

Question: What about the “HR for primary study endpoint (first CV hospitalization or all-cause death) vs placebo” value ([2]; post-hoc cohort with AF on all ECGs, 95% CI 0.522-1.056, p=0.096) of the same compound?
Answer: The value was 0.742.

Question: And the “first unplanned CV hospitalizations, patients reaching endpoint” value ([2]; post-hoc cohort with AF on all ECGs, placebo 85)?
Answer: The value was 37 patients.

Question: And the “primary study endpoint (time to first CV hospitalization or all-cause death), patients with event” value ([2]; post-hoc cohort with AF on all ECGs, placebo 95)?
Answer: The value was 46 patients.

Question: And the “major clinical outcomes including cardiovascular hospitalizations or cardiovascular mortality, and stroke” value [3]?
Answer: The value was “reduced major clinical outcomes”.

Question: And the mortality vs placebo [4]?
Answer: Its mortality vs placebo is “increased mortality”.

Question: What about the rate control [5] of the same compound?
Answer: The rate control was “has rate-controlling properties”.

Question: And the rhythm-controlling efficacy [6]?
Answer: The rhythm-controlling efficacy was “has been demonstrated”.

Question: What does the source list for `CCCCc1oc2ccc(NS(C)(=O)=O)cc2c1C(=O)c1ccc(OCCCN(CCCC)CCCC)cc1` [dronedarone hydrochloride]?
Answer: unplanned cardiovascular hospitalizations and mortality, events recorded ([1]; preliminary results, placebo group 72 events): 114 events; relative risk of cardiovascular deaths vs placebo ([1]; preliminary results, 95% CI 0.98-6.53, p=0.0462): 2.53; relative risk of cardiovascular hospitalizations vs placebo ([1]; preliminary results, 95% CI 1.15-2.12, p=0.0039): 1.56; relative risk of cardiovascular hospitalizations for heart failure vs placebo ([1]; preliminary results, 95% CI 1.22-3.99, p=0.0070): 2.21; relative risk of heart failure related episodes vs placebo ([1]; preliminary results, 95% CI 1.66-3.74, p<0.0001): 2.49; relative risk of cardiovascular hospitalizations and deaths vs placebo ([1]; preliminary results, 95% CI 1.20, 2.17, p=0.001): 1.62; cardiovascular mortality, events recorded ([1]; preliminary results, placebo group 6 events): 15 events; cardiovascular hospitalizations for heart failure, events recorded ([1]; preliminary results, placebo group 16 events): 35 events; heart failure, events recorded ([1]; preliminary results, placebo group 33 events): 80 events; unplanned cardiovascular hospitalizations, events recorded ([1]; preliminary results, placebo group 68 events): 104 events; relative risk of cardiovascular hospitalizations and death vs placebo ([1]; preliminary results, subgroup with NYHA class III heart failure, 95% CI 1.02, 2.44, p=0.041): 1.58; relative risk of cardiovascular hospitalizations and death vs placebo ([1]; preliminary results, subgroup with left ventricular ejection fraction (LVEF)<40%, 95% CI 1.20, 2.30, p=0.002): 1.66; relative risk of cardiovascular hospitalizations and death vs placebo ([1]; preliminary results, subgroup with symptomatic heart failure, 95% CI 1.01, 2.09, p=0.043): 1.46; unplanned cardiovascular hospitalizations and mortality, events recorded ([1]; results (III.1'), placebo group 67 events): 127 events; relative risk of cardiovascular hospitalizations and deaths vs placebo ([1]; results (III.1'), p<0.001): 1.95; relative risk of cardiovascular deaths vs placebo ([1]; results (III.2'), 95% CI 1.00-4.49, p=0.046): 2.11; cardiovascular mortality, events recorded ([1]; results (III.2'), placebo group 10 events): 21 events; relative risk of unplanned hospitalizations for cardiovascular causes vs placebo ([1]; results (III.3'), 95% CI 1.44-2.70, p<0.001): 1.97; unplanned hospitalizations for cardiovascular causes, events recorded ([1]; results (III.3'), placebo group 59 events): 113 events; relative risk of cardiovascular hospitalizations for heart failure vs placebo ([1]; results (III.4'), 95% CI 1.10-2.99, p=0.02): 1.81; cardiovascular hospitalizations for heart failure, events recorded ([1]; results (III.4'), placebo group 24 events): 43 events; relative risk of a heart failure episode or hospitalizations for heart failure vs placebo ([1]; results (III.9), 95% CI 1.57-2.98, p<0.001): 2.16; heart failure episode or hospitalizations for heart failure, events recorded ([1]; results (III.9), placebo group 55 events): 115 events
